Measured values: article PMC11310081, “Deep-learning-enabled antibiotic discovery through molecular de-extinction” (Nature Biomedical Engineering, 2024)
Converted amounts (≈) assume the structure as drawn. Peptide text beside a SMILES is read from it.

Key:
[1] = system: A. baumannii ATCC 19606; assay type: cell-based, Acinetobacter baumannii; conditions: ATCC 19606, 20 h
From the text: (§1) The following Gram-negative bacteria were used in our study: A. baumannii ATCC 19606, E. coli ATCC 11775, E. coli AIC221 (E. coli MG1655 phnE_2::FRT), E. coli AIC222 (E. coli MG1655 pmrA53 phnE_2::FRT (colistin resistant)), K. pneumoniae ATCC 13883, P. aeruginosa PAO1 and P. aeruginosa PA14. The following Gram-positive bacteria were also used in our study: S. aureus ATCC 12600, S. aureus ATCC BAA-1556 (methicillin-resistant strain), E. faecalis ATCC 700802 (vancomycin-resistant strain) and E. faecium ATCC 700221 (vancomycin-resistant strain). Bacteria were grown from frozen stocks and plated on Luria–Bertani (LB) or Pseudomonas isolation agar plates (P. aeruginosa strains) and incubated overnight at 37 °C. After the incubation period, a single colony was transferred to 5 ml of LB medium, and cultures were incubated overnight (16 h) at 37 °C. The following day, an inoculum was prepared by diluting the overnight cultures 1:100 in 5 ml of the respective media and incubating them at 37 °C until bacteria reached logarithmic phase (OD600 = 0.3–0.5).
(§2) The in vitro antimicrobial activity of the peptides was assessed by using the broth microdilution assay. […] Aqueous solutions of the peptides were added to the plate at concentrations ranging from 1 to 64 μmol l^−1. […] The optical density of the plates was measured at 600 nm using a spectrophotometer. All assays were done as three biological replicates.

[2] = system: A. baumannii ATCC 19606; assay: Cytoplasmic membrane depolarization assay (DiSC3-5); assay type: cell-based, Acinetobacter baumannii; conditions: DiSC3-5 fluorescence, peptide at its MIC, polymyxin B as positive control; three replicates
Method: The depolarization of the bacterial cytoplasmic membrane was determined by fluorescence measurements of the membrane potential-sensitive dye, DiSC3-5 (ref. [16]). Briefly, A. baumannii ATCC 19606 and P. aeruginosa PAO1 were grown at 37 °C until mid-log phase (OD600 = 0.5). The cells were then centrifuged using the same conditions described for the NPN uptake assays, washed twice with washing buffer containing 20 mmol l^−1 glucose and 5 mmol l^−1 HEPES (pH 7.2). The cells were diluted 1:10 (OD600 = 0.05) in a buffer containing 0.1 mol l^−1 KCl, 20 mmol l^−1 glucose and 5 mmol l^−1 HEPES (pH 7.2). About 100 μl of bacterial solution was then incubated for 15 min with 20 nmol l^−1 of DiSC3-5 until the fluorescence reached a plateau, that is, the dye was fully internalized into the bacterial membrane. Transmembrane potential changes were monitored by observing the difference in the fluorescence emission intensity of DiSC3-5 (λex = 622 nm, λem = 670 nm), after the addition of 100 μl of peptide aqueous solution at its MIC. All assays were performed in three biological replicates. The relative fluorescence values were calculated for the course of the experiment using non-linear fitting, and the untreated control (buffer + bacteria + fluorescent dye) served as baseline. The following equation was applied to show the percentage difference between the fluorescence of the untreated control (baseline) and the sample: Percentagedifference=100×(fluorescencesample−baseline)/baseline

[3] = system: HEK293T cells; conditions: 24 h
How it was run: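 5,000 cells/well seeded a day ahead in DMEM with 10% FBS, then treated with peptides; viability by MTT (0.5 mg/ml, 4 h, 37 °C), formazan in acidic isopropanol read at 570 nm. Concentration causing 50% lysis from non-linear regression; three biological replicates, two technical each.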

[4] = system: 11 clinically relevant bacterial pathogens; assay type: cell-based; conditions: Supplementary Dataset 2; against the 11 pathogens tested
How it was run: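 Broth microdilution with peptides at 1 to 64 μmol l^−1. Inocula came from overnight LB cultures diluted 1:100 and grown at 37 °C to log phase (OD600 = 0.3–0.5); growth read by OD600, three biological replicates.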

[5] = system: E. coli AIC221; assay type: cell-based, Escherichia coli; conditions: AIC221, 20 h
From the text: as §1, §2

[6] = system: P. aeruginosa PA14; assay type: cell-based, Pseudomonas aeruginosa; conditions: PA14, 20 h
From the text: as §1, §2

[7] = system: P. aeruginosa PAO1; assay type: cell-based, Pseudomonas aeruginosa; conditions: PAO1, 20 h
From the text: as §1, §2

[8] = system: E. faecium ATCC 700221 (vancomycin-resistant strain); assay type: cell-based, Enterococcus faecium; conditions: ATCC 700221, 20 h
From the text: as §1, §2

[9] = system: E. coli ATCC 11775; assay type: cell-based, Escherichia coli; conditions: ATCC 11775, 20 h
From the text: as §1, §2

[10] = system: K. pneumoniae ATCC 13883; assay type: cell-based, Klebsiella pneumoniae; conditions: ATCC 13883, 20 h
From the text: as §1, §2

Compound	Minimal inhibitory concentration, A. baumannii ATCC19606 [1] [µM]	Cytoplasmic membrane depolarization, in words [2]	CC50 [3] [µM]	TI (therapeutic index) [3]	Active or Inactive [4]	Minimal inhibitory concentration, E. coli AIC221 [5] [µM]	Minimal inhibitory concentration, P. aeruginosa PA14 [6] [µM]	Minimal inhibitory concentration, P. aeruginosa PAO1 [7] [µM]	Minimal inhibitory concentration, E. faecium ATCC700221-VRE [8] [µM]	Minimal inhibitory concentration, E. coli ATCC11775 [9] [µM]	Minimal inhibitory concentration, K. pneumoniae ATCC133883 [10] [µM]
CC[C@H](C)[C@H](NC(=O)[C@H](CCCCN)NC(=O)[C@@H](N)CCCNC(=N)N)C(=O)N[C@@H](CC(C)C)C(=O)NCC(=O)N[C@@H](CC(=O)O)C(=O)N[C@@H](CC(C)C)C(=O)N[C@@H](CCCCN)C(=O)N[C@@H](Cc1ccccc1)C(=O)N[C@@H](CC(C)C)C(=O)N[C@@H](CCC(=O)O)C(=O)N[C@@H](CO)C(=O)N[C@@H](CC(C)C)C(=O)N[C@@H](CCCCN)C(=O)N[C@H](C(=O)N[C@@H](Cc1ccc(O)cc1)C(=O)O)[C@@H](C)O [Anomalopterin-1] (H-RKILGDLKFLESLKTY-OH; N-terminus and C-terminus assumed)	64 (≈ 123 µg/mL)	most potent depolarization effects	> 128	> 2	Active	–	–	–	–	–	–
CC[C@H](C)[C@H](NC(=O)[C@H](Cc1ccc(O)cc1)NC(=O)[C@H](C)NC(=O)[C@@H](N)CCCNC(=N)N)C(=O)N[C@@H](CS)C(=O)N[C@@H](CCCNC(=N)N)C(=O)N[C@@H](CCCCN)C(=O)N[C@@H](CCCCN)C(=O)N[C@@H](Cc1ccccc1)C(=O)N[C@@H](CC(C)C)C(=O)N[C@@H](CO)C(=O)N[C@@H](CC(C)C)C(=O)N[C@@H](CCCNC(=N)N)C(=O)N[C@@H](CCCCN)C(=O)N[C@@H](C)C(=O)N[C@@H](CO)C(=O)N[C@H](C(=O)N[C@@H](CCCCN)C(=O)N[C@@H](CC(C)C)C(=O)N[C@@H](CCC(N)=O)C(=O)N[C@@H](CO)C(=O)N[C@@H](CC(C)C)C(=O)N[C@H](C(=O)N[C@@H](CCCNC(=N)N)C(=O)N[C@@H](CCSC)C(=O)N[C@@H](CCCCN)C(=O)O)C(C)C)[C@@H](C)CC [Equusin-2] (H-RAYICRKKFLSLRKASIKLQSLVRMK-OH; N-terminus and C-terminus assumed)	8 (≈ 25.1 µg/mL)	most potent depolarization effects	> 128	> 16	Active	16 (≈ 50.2 µg/mL)	–	–	–	–	–
CC[C@H](C)[C@H](NC(=O)[C@H](CCCCN)NC(=O)[C@H](CCCCN)NC(=O)[C@H](Cc1ccccc1)NC(=O)[C@H](Cc1ccccc1)NC(=O)[C@@H](NC(=O)[C@@H](NC(=O)[C@H](CO)NC(=O)[C@H](CCCCN)NC(=O)[C@@H](NC(=O)[C@@H](NC(=O)[C@H](Cc1c[nH]c2ccccc12)NC(=O)[C@H](CCCCN)NC(=O)[C@H](CCCCN)NC(=O)[C@@H](NC(=O)[C@H](CCC(=O)O)NC(=O)[C@H](CCCCN)NC(=O)[C@H](CC(C)C)NC(=O)[C@@H](NC(=O)[C@H](CCCCN)NC(=O)[C@H](CCCNC(=N)N)NC(=O)[C@H](CC(C)C)NC(=O)[C@H](CC(C)C)NC(=O)[C@@H](N)CCCCN)C(C)C)[C@@H](C)O)C(C)C)[C@@H](C)CC)C(C)C)C(C)C)C(=O)N[C@@H](CCCNC(=N)N)C(=O)N[C@@H](CCCCN)C(=O)O [Hesperelin-1] (H-KLLRKVLKETKKWVIKSVVFFKKIRK-OH; N-terminus and C-terminus assumed)	4 (≈ 13 µg/mL)	–	> 128	–	Active	8 (≈ 26 µg/mL)	16 (≈ 51.9 µg/mL)	8 (≈ 26 µg/mL)	2 (≈ 6.49 µg/mL)	–	–
CC[C@H](C)[C@H](NC(=O)CNC(=O)[C@H](Cc1c[nH]cn1)NC(=O)[C@H](CC(N)=O)NC(=O)[C@H](CCCCN)NC(=O)[C@H](CCC(N)=O)NC(=O)[C@@H](N)CCCNC(=N)N)C(=O)N[C@@H](Cc1c[nH]cn1)C(=O)N[C@@H](Cc1ccccc1)C(=O)N[C@@H](CCCNC(=N)N)C(=O)N[C@H](C(=O)N[C@@H](CC(C)C)C(=O)N[C@@H](C)C(=O)N[C@@H](CCCCN)C(=O)N[C@@H](C)C(=O)N[C@@H](CC(C)C)C(=O)N[C@@H](CCCNC(=N)N)C(=O)O)C(C)C [Hesperelin-3] (H-RQKNHGIHFRVLAKALR-OH; N-terminus and C-terminus assumed)	–	most potent depolarization effects	–	–	Active	–	–	–	–	–	–
CC[C@H](C)[C@H](NC(=O)[C@H](Cc1ccccc1)NC(=O)[C@@H](N)CCCCN)C(=O)N[C@@H](CC(C)C)C(=O)N[C@@H](CC(N)=O)C(=O)N[C@@H](Cc1ccccc1)C(=O)N[C@@H](CCCCN)C(=O)N[C@H](C(=O)N1CCC[C@H]1C(=O)N[C@H](C(=O)N[C@@H](CO)C(=O)N[C@@H](Cc1ccccc1)C(=O)N[C@@H](CCCCN)C(=O)O)[C@@H](C)CC)[C@@H](C)CC [Pinguinusin-1] (H-KFILNFKIPISFK-OH; N-terminus and C-terminus assumed)	32 (≈ 51 µg/mL)	–	> 128	–	Active	4 (≈ 6.38 µg/mL)	–	–	–	16 (≈ 25.5 µg/mL)	16 (≈ 25.5 µg/mL)
CC[C@H](C)[C@H](N)C(=O)N[C@@H](CO)C(=O)N[C@@H](CC(C)C)C(=O)N[C@@H](Cc1ccccc1)C(=O)N[C@H](C(=O)N[C@@H](CCCNC(=N)N)C(=O)N1CCC[C@H]1C(=O)N[C@@H](CC(C)C)C(=O)N[C@@H](C)C(=O)N[C@@H](CC(C)C)C(=O)NCC(=O)N[C@H](C(=O)N[C@@H](CCCNC(=N)N)C(=O)N[C@@H](CC(C)C)C(=O)O)C(C)C)[C@@H](C)CC [Psephotellin-1] (H-ISLFIRPLALGVRL-OH; N-terminus and C-terminus assumed)	32 (≈ 50.2 µg/mL)	–	> 128	–	Active	16 (≈ 25.1 µg/mL)	–	–	–	16 (≈ 25.1 µg/mL)	32 (≈ 50.2 µg/mL)
